In PMC6513986, “Molecular basis for heat desensitization of TRPV1 ion channels” (Nature Communications, 2019):
Ends that are not written are not given here.

What was measured:
mV1 = biological target: T1, mV1 (Mus musculus, UniProt Q704Y3); assay: Inhibition of Dh of mV1 by C-terminal peptides or co-expressed C terminus, whole-cell; assay type: cell-based; set-up: Tau values: unit not given here; details: for Id/Imax / Tau values: Supplementary figure 1e
T1 construct: expressed in transfected cells; host or cells: HEK293T
From the text: To generate the mC plasmid, the pEGFP-N1 vector enzyme cutting sites by HindIII and EcoRI were made by QuickCut Hind III and QuickCut EcoR I. The primer pair (5′- […]-3′ and 5′- […]-3′) for mouse TRPV1 was generated. pEGFP-N1 enzyme digestion vector and mouse TRPV1 PCR fragment were used for homologous recombination.
The pC plasmid was generated by the primer pair (5′-[…]-3′ and 5′-[…]-3′) and the homologous recombination between the pEGFP-N1 enzyme digestion vector and platypus TRPV1 PCR fragment were used.
The C-terminal peptides were synthesized[26] as the following sequences:
Random peptide: […]
(§1) All recordings were performed at room temperature.
(§2) Temperature control was achieved by perfusion of preheated or precooled solutions. Solutions were heated with an SHM-828 eight-line heater controlled by a CL-100 temperature controller (Harvard Apparatus). A custom-made manifold was attached to the output ports of the heater to deliver solutions to the recording chamber and provide heat insulation. Solutions were cooled by embedding the solution reservoirs in ice water and then perfused through a separate line. The patch pipette was placed about 1 mm from the solution output ports. A TA-29 miniature bead thermistor (Harvard Apparatus) was placed right next to the pipette, to ensure accurate monitoring of local temperature. The thermistor’s temperature readout was fed into an analog input of the patch amplifier and recorded simultaneously with current. With this method, we achieved rapid and reliable temperature changes.

TRPV1 = details: cited from earlier work
From the text: To further corroborate our findings in FRET experiments of heat-desensitized channels, we took an alternative experimental strategy where we measured the changes in FRET induced by centipede toxin RhTx. […] Thus, we believe that the prolonged application of RhTx mimicked the effect ... || Based on the site-specific structural dynamics information, we computationally modeled the three-dimensional structure of mV1 in the Dh state. The blue shift in ANAP emission indicated a transition into a more hydrophobic environment at the 630 site, which provided an experimentally derived constraint for structural modeling using a recently published approach. As the heat-activated state of TRPV1 channels has not been resolved, we employed the double-knot toxin-bound state determined by cryo-EM (PDB ID: 3J5Q)[20] as the open state model, because a previous study had shown that Redhead tox ... || To model the heat-induced desensitized state of TRPV1, membrane-symmetry-loop modeling was performed using the Rosetta molecular modeling suite[41] version 2015.25. […] The selectivity filter, the pre S6 linker, and the S1–S2 linker were modeled de novo with the kinematic (KIC) loop modeling protocol[42],[43]. Ten th ... || (+ 1 further places)

[1] = biological target: T2, N-terminal region of mV1 (mN region, 1M-433R) (Mus musculus, UniProt Q704Y3); assay: SPR, N-terminal region of mV1 immobilized; assay type: binding; details: 47.6 to 95.2 μM, 15 °C
T2 construct: N-terminal region of mV1 (mN region, 1M-433R)
Experimental: Note that the desensitization of mV1 occurs before cooling starts. Amplitude ratio (n = 7, two-sided t-test: *p < 0.01) between desensitized currents (Id) and maximum currents (Imax) induced by heat at 45 °C (right panel). c Superimposed representative temperature–response relationships of heat-evoked currents in HEK293T cells transiently transfected with pV1 and mV1. d Chimeric channels were generated between mV1 (gray) and pV1 (yellow) on the basis of the location of transmembrane domains. […] Channel plasmid was co-expressed with C-terminal region of pV1 (pC, 701N-851E) or mV1 (mC, 688N-839K). g Example current induced by a temperature ramp recorded from whole-cell patches with 1 mM mV1 C-terminal peptide (mC peptide) or random peptide in the pipette solution. h The mC peptide was perfused over an SPR sensor coated with the N-terminal region of mV1 (mN region, 1M-433R) at 15 or 35 °C (left and middle panels). The mC peptide in 95.2 μM was perfused over an SPR sensor coated with mN region at 15, 30, 33, and 35 °C (right panel). i Significant concentration and temperaturedependence of the interaction between N and C termini (n = 6, two-sided t-test: *p < 0.01). All statistical data are given as mean ± SEM. Source data are provided as a Source data file […]

mV1, pV1 and mutants = assay: Heat-induced desensitization (Dh): Id/Imax and tau, patch clamp; assay type: cell-based, mouse; platypus; details: Figure 2g
Experimental: as §1, §2

[2] = biological target: T3, N-terminal region of mV1 (mN region, 1M-433R) (mouse, UniProt Q704Y3 1-433); assay: SPR; mN region (1M-433R) immobilised on the sensor chip, mC peptide (30 aa) perfused at 47.6 and 95.2 uM; 35 °C ('high temperature'); details: both partners purified
T3 construct: mouse TRPV1 (mV1), N-terminal region, residues 1M-433R; In the functional rows the N terminus stood within the whole mV1 channel in HEK293T cells; also called N-terminal peptides; N terminus of mV1

[3] = biological target: T3, N-terminal region of mV1 (mN region, …); assay: SPR; mN region (1M-433R) immobilised on the sensor chip, mC peptide (30 aa) perfused at 47.6 and 95.2 uM; 15 °C ('low temperature'); details: both partners purified
[4] = Id/Imax_Average of 6 replicates, SD and SEM in columns of their own
[5] = Tau values_Average of 6 replicates, SD and SEM in columns of their own

Molecule: LKHYTGSLKPEDAEVFKDSMAPGEK [Pep_25, C-terminal peptide]
- Id/Imax (mV1; [4]): 0.403
- Tau values (mV1; [5]): 59.5
- Id/Imax (mV1; replicate 1): 0.318
- Tau values (mV1; replicate 1): 43.8
- Id/Imax (mV1; replicate 2): 0.509
- Tau values (mV1; replicate 2): 73
- Id/Imax (mV1; replicate 3): 0.427
- Tau values (mV1; replicate 3): 60.4
- Id/Imax (mV1; replicate 4): 0.384
- Tau values (mV1; replicate 4): 48.3
- Id/Imax (mV1; replicate 5): 0.367
- Tau values (mV1; replicate 5): 52
- Id/Imax (mV1; replicate 6): 0.413
- Tau values (mV1; replicate 6): 79.5

Molecule: C=C(C)[C@]12C[C@@H](C)[C@@]34O[C@](Cc5ccccc5)(O[C@@H]1[C@@H]3C=C(COC(=O)Cc1ccc(O)c(OC)c1)C[C@]1(O)C(=O)C(C)=C[C@@H]41)O2 [RTX]
- activation through heat activation pathway (TRPV1): activated the channel through heat activation pathway

Molecule: GSLKPEDAEVFKDSMAPGEK [Pep_20, C-terminal peptide]
- Id/Imax (mV1; [4]): 0.596
- Tau values (mV1; [5]): 29.8
- Id/Imax (mV1; replicate 1): 0.486
- Tau values (mV1; replicate 1): 23.5
- Id/Imax (mV1; replicate 2): 0.667
- Tau values (mV1; replicate 2): 38.3
- Id/Imax (mV1; replicate 3): 0.715
- Tau values (mV1; replicate 3): 20.7
- Id/Imax (mV1; replicate 4): 0.612
- Tau values (mV1; replicate 4): 24.4
- Id/Imax (mV1; replicate 5): 0.567
- Tau values (mV1; replicate 5): 39.6
- Id/Imax (mV1; replicate 6): 0.529
- Tau values (mV1; replicate 6): 32.3

Molecule: QVEEPTYHKLPKLSGVEADEMSDKFKEGPM [Random peptide]
- inhibition of Dh of mV1 (mV1; 1 mM peptide in pipette solution, whole-cell): failed to inhibit Dh

Molecule: PEEVQLKHYTGSLKPEDAEVFKDSMAPGEK [mC peptide]
- increase in SPR response [1]: 162%

B1: C terminus of mV1: C-terminal region of mV1 (mC, 688N-839K), co-expressed plasmid (protein)
chain: NKIAQESKNIWKLQRAITILDTEKSFLKCMRKAFRSGKLLQVGFTPDGKDDFRWCFRVDEVNWTTWNTNVGIINEDPGNCEGVKRTLSFSLRSGRVSGRNWKNFALVPLLRDASTRDRHSTQPEEVQLKHYTGSLKPEDAEVFKDSMAPGEK
modifications: left off: eGFP (from the vector pEGFP-N1), end not stated, state not stated
notes: C-terminal region of mV1 (mC, 688N-839K), co-expressed plasmid
- inhibition of Dh of mV1 (mV1; co-expression with C-terminal region): largely inhibited

B2: DkTx: peptide toxin, double-knot toxin (peptide, UniProt P0CH43 1-79, looked up)
Tau-theraphotoxin-Hs1a: DCAKEGEVCSWGKKCCDLDNFYCPMEFIPHCKKYKPYVPVTTNCAKEGEVCGWGSKCCHGLDCPLAFIPYCEKYRGRND
- activation through heat activation pathway (TRPV1): activated the channel through heat activation pathway
- mimicry of heat activation (TRPV1): mimic heat activation of TRPV1

B3: mV1 (protein, UniProt Q704Y3 1-839, looked up)
Transient receptor potential …: MEKWASLDSDESEPPAQENSCPDPPDRDPNSKPPPAKPHIFATRSRTRLFGKGDSEEASPMDCPYEEGGLASCPIITVSSVVTLQRSVDGPTCLRQTSQDSVSTGVETPPRLYDRRSIFDAVAQSNCQELESLLSFLQKSKKRLTDSEFKDPETGKTCLLKAMLNLHNGQNDTIALLLDIARKTDSLKQFVNASYTDSYYKGQTALHIAIERRNMALVTLLVENGADVQAAANGDFFKKTKGRPGFYFGELPLSLAACTNQLAIVKFLLQNSWQPADISARDSVGNTVLHALVEVADNTADNTKFVTNMYNEILILGAKLHPTLKLEELTNKKGLTPLALAASSGKIGVLAYILQREIHEPECRHLSRKFTEWAYGPVHSSLYDLSCIDTCEKNSVLEVIAYSSSETPNRHDMLLVEPLNRLLQDKWDRFVKRIFYFNFFVYCLYMIIFTTAAYYRPVEGLPPYKLNNTVGDYFRVTGEILSVSGGVYFFFRGIQYFLQRRPSLKSLFVDSYSEILFFVQSLFMLVSVVLYFSHRKEYVASMVFSLAMGWTNMLYYTRGFQQMGIYAVMIEKMILRDLCRFMFVYLVFLFGFSTAVVTLIEDGKNNSLPVESPPHKCRGSACRPGNSYNSLYSTCLELFKFTIGMGDLEFTENYDFKAVFIILLLAYVILTYILLLNMLIALMGETVNKIAQESKNIWKLQRAITILDTEKSFLKCMRKAFRSGKLLQVGFTPDGKDDFRWCFRVDEVNWTTWNTNVGIINEDPGNCEGVKRTLSFSLRSGRVSGRNWKNFALVPLLRDASTRDRHSTQPEEVQLKHYTGSLKPEDAEVFKDSMAPGEK
- Id/Imax_Average (mV1, pV1 and mutants; mean of replicates): 0.993
- Id/Imax (mV1, pV1 and mutants; replicate 1): 0.9971
- Id/Imax (mV1, pV1 and mutants; replicate 2): 0.9951
- Id/Imax (mV1, pV1 and mutants; replicate 3): 0.999
- Id/Imax (mV1, pV1 and mutants; replicate 4): 0.9588
- Id/Imax (mV1, pV1 and mutants; replicate 5): 0.9972
- Id/Imax (mV1, pV1 and mutants; replicate 6): 0.9943
- Id/Imax (mV1, pV1 and mutants; replicate 7): 0.9968
- Id/Imax (mV1, pV1 and mutants; replicate 8): 0.9956
- Id/Imax (mV1, pV1 and mutants; replicate 9): 0.9982
- Id/Imax (mV1, pV1 and mutants; replicate 10): 0.9979

B4: mV1 C-terminal peptide (Pep_30) (peptide)
peptide: PEEVQLKHYTGSLKPEDAEVFKDSMAPGEK
notes: last 30 residues of mouse TRPV1 (mV1); The text ties the SPR and the pipette experiment to 'a 30-amino-acid' C-terminal peptide; Pep_30 is the only printed peptide of that length from mV1; also called mC peptide; C-terminal peptides (a 30-amino-acid molecule); source: synthetic peptide
- Kd [2]: 0.003 µM
- Kd [3]: 0.14 µM
